Source: patent publication US7560597B2, “2′,4′-dichloro-biphenyl-4-yl-hydroxy-ketones and related compounds and their use as therapeutic agents” (The University Court of the University of Aberdeen, priority 2007, dated 2009)
Entries after “also recorded” stand apart in the source; their conditions may differ.

Legend:
[1] = system: macrophage cell line J774; assay: Alamar Blue macrophage J774 viability assay; type: cell-based; conditions: Mus musculus, J774, 72 h, 72 hours culture with compound
Protocol: Initial screening of candidate compounds was performed using viability assays on cultures of the macrophage cell line J774, which have been used before as a model system for osteoclast survival (see, e.g., Luckman et al., 1998). The assays are based on the survival of the J774 macrophage cell line; macrophages are closely related to osteoclasts, and contain similar high levels of esterase activity.
J774 cells were plated at 10^4 cells per well in 150 μL αMEM (α Modified Eagle Medium) in 96-well plates and grown overnight. The next day, test compounds were added to the cultures, and cultures were continued for another 72 hours. At the end of the culture period, cell survival was determined using an Alamar Blue assay as previously described (see, e.g., Nociari et al., 1998).
Alamar Blue is an oxidation-reduction sensitive indicator. The dye itself is in the oxidised state, which is blue and non-fluorescent. The dye can accept electrons from reducing species, such as NADPH and FADH, to form a reduced dye species, which is red and fluorescent. Thus the transformation from oxidised form to reduced form can be measured by fluorimetric or colourimetric means. For fluorescence measurements, 530-560 nm excitation and 590 nm emission wavelengths are typically used. For colourimetric measurements, absorbance is measured at 570 nm (reduced form) and 600 nm (oxidised form) and a simple calculation performed to determine the relative quantities of the two species.
A high ratio of the reducing species, NADPH and FADH, to the corresponding oxidised species, NADP and FAD, is an indicator that cells are proliferating and viable. A low ratio indicates cells that are quiescent or non-viable.
Briefly, Alamar Blue (Biosource International) was added undiluted to the each well (1:10 v/v, 15 μL). The plate was incubated at 37° C. for 3-4 hours and the fluorescence was measured at 590 nm, with a 25 nm bandwidth. A high reading indicated cells with normal viability, and a low reading indicated cells that have been damaged and are no longer proliferating normally. The controls gave a high fluorescence reading, indicating a high number of live, healthy cells. A potent test compound gave a low fluorescence reading. The average results for each test compound (n=5) were expressed as a percent (%) of the average control value.
Addition of Compounds. All of the compounds studied were made up as 100 mM solutions in DMSO. These stock solutions were then diluted 100 or 1000× in culture medium (αMEM). From these 1 mM or 100 μM solutions, convenient quantities (3-15 μL) were added directly to the wells so as to give the desired final compound concentration.

[2] = system: mouse-ovariectomy bone loss model; assay: Ovariectomy induced bone loss (pQCT trabecular bone density); type: in vivo; conditions: OVX mice, 20 mg/kg orally
Protocol: Animals. Female 9 week-old C57/BL6 mice were used. Animals were housed in a designated animal facility and routinely maintained on a 12 hour:12 hour light:dark cycle and given ad libitum access to food and water.
Ovariectomy induced bone loss. Bilateral ovariectomy (Ovx) was performed under general anaesthesia. Sham ovariectomy (Sham) was similarly performed but with externalisation and replacement of the ovaries. Animals were given a daily injection of (a) test compound (e.g., 10 mg/kg) in vehicle (corn oil), or (b) vehicle (corn oil). After 21 days, the animals were killed, and the tibial bones were dissected and used for bone mineral density measurements and histomorphometric analysis (see below).
Bone Mineral Measurements. Measurements of bone mineral density (BMD) at the left proximal tibial metaphysis were determined by peripheral quantitative computed tomography (pQCT) using an XCT Research M bone densitometer with a voxel size of 70 μm and analysis software version 5.1.4 (Stratec Medizintechnik, Pforzheim, Germany). […]
Statistical Analyses. […] Significant differences between groups were determined by ANOVA followed by post-hoc testing using Dunnet's post-test. […]
Compounds ABD68, ABD328 and ABD355 (dosage 20 mg/kg, orally) were investigated in vivo using ovariectomy induced bone loss assessed using peripheral quantitative computed tomography, as described above.

[3] = In vivo pharmacokinetics: serum levels after oral dosage (HPLC/UV); parameters: species or system rat; conditions: rats, 10 mg/kg oral
Protocol: Absorption and metabolic stability were studied using an in vivo pharmacokinetics assay. Drug levels assessed using HPLC/UV.
Following overnight starvation, male Wistar rats (250 g) were given a bolus gavage of 500 μL of a solution of test compound in corn oil (5 mg/ml). Blood samples (1 mL, whole blood) were taken at various time intervals and the serum collected following centrifugation. Samples were frozen until required for analysis.
Ethyl acetate (4 mL) was added to the defrosted serum and the samples mixed for 20 minutes. Following centrifugation, the ethyl acetate layer was collected and evaporated under a stream of nitrogen. The residue was reconstituted in mobile phase and 20 μL injected onto the chromatogram.
Standard calibration curves were prepared for each of the test compounds and were linear in the range of 1 ng/mL to 250 ng/mL.
• Column: HIRPB C18 (150×4.6 mm). • Mobile phase: 60% 25 mM ammonium acetate, pH 4; 40% acetonitrile. • Flow rate: 1 mL/minute. • Detection: Peaks detected by UV absorption at λmax in the range of 240-275 nm.
Serum levels of compounds ABD328, ABD345 and ABD430 following oral dosage (10 mg/kg) over the course of 60 minutes were investigated in vivo in rats using an HPLC/UV detection system, as described above.

[4] = system: mouse collagen-induced arthritis model; assay: Collagen-induced arthritis model, joint inflammation scoring; type: in vivo; conditions: for total joint score (sum of joint inflammation scores of the study group): 21-day period, n=10, untreated group 47, FIG. 3
Protocol: Collagen-induced arthritis (CIA) was induced in 8-week old male DBA/1 mice, by intradermal injection of 100 μL of chicken collagen type II (2 mg/mL) suspended in complete Freund's adjuvant supplemented with 2 mg/mL devitalised M. Tuberculosis into the base of the tail. This will lead to joint inflammation in >80% of the animals within 4 weeks. Treatment with ABD328 (10 mg/kg/day, orally or i.p., delivered in corn oil) was started when joint inflammation became apparent in the first animals (in this experiment 15 days after injection), and the experiment was terminated 3 weeks later. For each animal, the scores for all four joints were added (maximal score=12).
Compound ABD328 (dosage 10 mg/kg, i.p. or oral) was investigated in vivo using the collagen-induced arthritis model, assessed using joint inflammation severity scoring, as described above.

[5] = Table 3 (variation of W), J774 cells

OCCCCCC(O)c1ccc(-c2ccc(Cl)cc2Cl)cc1 (racemic) [ABD300, (R,S)-1-(2′,4′-Dichloro-biphenyl-4-yl)-hexane-1,6-diol]
IC50 [1, 5]: 8 ± 2 µM

O=C(CCCCCO)c1ccc(-c2ccc(Cl)cc2Cl)cc1 [ABD328, 1-(2′,4′-Dichloro-biphenyl-4-yl)-6-hydroxy-hexan-1-one]
IC50 ([1]; Table 2, J774 cells): 12 ± 2 µM | IC50 [1, 5]: 11 ± 3 µM | effect on ovariectomy-induced bone loss (in words) ([2]; 20 mg/kg): fully reverse the effects of ovariectomy-induced bone loss; also recorded: fully prevents bone loss | increase in trabecular bone density ([2]; relative to the control group (OVX no drug: 34% decrease), FIG. 1): 6% | metabolic stability (in words) ([3]; in vivo serum levels): good degree of metabolic stability | oral absorption (blood serum levels), in words ([3]; over 60 minutes, FIG. 2): well absorbed | total joint score (sum of joint inflammation scores of the study group) ([4]; 10 mg/kg/day i.p.): 5 | total joint score (sum of joint inflammation scores of the study group) ([4]; 10 mg/kg/day orally): 13 | effect on collagen-induced arthritis / inflammation (in words) ([4]; 10 mg/kg/day, i.p. or oral): fully reverse the effects of collagen-induced arthritis; also recorded: prevents inflammation

OCCCCC/C(=N\O)c1ccc(-c2ccc(Cl)cc2Cl)cc1 [ABD468, 1-(2′,4′-Dichloro-biphenyl-4-yl)-6-hydroxy-hexan-1-one oxime]
IC50 [1, 5]: 7 ± 2 µM

OCCCCC[C@@H](O)c1ccc(-c2ccc(Cl)cc2Cl)cc1 [ABD511, (R)-1-(2′,4′-Dichloro-biphenyl-4-yl)-hexane-1,6-diol]
IC50 [1, 5]: 4 ± 2 µM

OCCCCC[C@H](O)c1ccc(-c2ccc(Cl)cc2Cl)cc1 [ABD513, (S)-1-(2′,4′-Dichloro-biphenyl-4-yl)-hexane-1,6-diol]
IC50 [1, 5]: 11 ± 4 µM
